According to patent US8367726B2, “Acid salt of tolterodine having effective stability for transdermal drug delivery system” (SK Chemicals Co., Ltd., priority 2008, dated 2013):
Counter-ions that a name gives are not always drawn.

Tests used:
[1] = Stability test under oxidation condition (0.3% hydrogen peroxide solution, HPLC total related substances); format: physicochemical; settings: room temperature, 24 hours, HPLC area ratio of total related substances
Text: (§1) This experiment is designed to confirm the storage stability of the various acid salts of tolterodine.
(§2) For a pharmaceutical drug to be processed into a certain formulation it is essential to be provided with sufficient storage stability. For example, for tablets or capsules, it is necessary for them to have stability in atmospheric condition, for injections, stability in moisture (water), and for patches, both stability in atmospheric condition and in moisture (water).

[2] = Stability test under acid condition (HPLC total impurities); format: physicochemical; settings: acid condition (details not described)
Text: as §1, §2

[3] = Alkali stability test (1M sodium hydroxide solution, HPLC total related substances); format: physicochemical; settings: room temperature, 24 hours, HPLC area ratio of total related substances
Text: as §1, §2

[4] = In vitro penetration test, Frantz cell mounted with hairless mouse skin; settings: 10 mg/mL in propylene glycol, 32° C.
Description: I mL of tolterodine salt was added onto a Frantz cell, which was mounted with a hairless mouse skin. Then, the amount of tolterodine penetrated through the skin at 32° C. was quantitated and its cumulative amount was measured.

Compound: Cc1ccc(O)c(C(CCN(C(C)C)C(C)C)c2ccccc2)c1.O=C(O)c1ccc2ccccc2c1O (stereo not drawn) [tolterodine 1-hydroxy-2-naphtate, tolterodine 1-hydroxy-2-naphthate]
- Total impurities, oxidation condition [1]: 0.33 % area
- Total impurities, acid condition [2]: 0.10 % area
- Total impurities, alkali condition [3]: 0.15 % area

Compound: Cc1ccc(O)c([C@H](CCN(C(C)C)C(C)C)c2ccccc2)c1.O=C1CC[C@@H](C(=O)O)N1 [tolterodine L-pyroglutamate, Tolterodine L-Pyroglutamate]
- Total impurities, oxidation condition [1]: 0.56 % area
- Total impurities, acid condition [2]: 0.03 % area
- Total impurities, alkali condition [3]: 0.08 % area

Compound: Cc1ccc(O)c([C@H](CCN(C(C)C)C(C)C)c2ccccc2)c1.O=C(O)c1ccccc1 [tolterodine benzoate, Tolterodine Benzoate]
- Total impurities, oxidation condition [1]: 0.39 % area
- Total impurities, acid condition [2]: 0.02 % area
- Total impurities, alkali condition [3]: 0.10 % area

Compound: Cc1ccc(O)c([C@H](CCN(C(C)C)C(C)C)c2ccccc2)c1 [tolterodine free base, 2-[(1R)-3-(diisopropylamino)-1-phenylpropyl)-4-methylphenol, reference compound]
- Total impurities, oxidation condition [1]: 4.74 % area
- Total impurities, acid condition [2]: 0.59 % area
- Total impurities, alkali condition [3]: 0.83 % area

Compound: Cc1ccc(O)c([C@H](CCN(C(C)C)C(C)C)c2ccccc2)c1.O=C(O)c1cc(O)ccc1O [tolterodine gentisate, Tolterodine Gentisate]
- Total impurities, oxidation condition [1]: 0.23 % area
- Total impurities, acid condition [2]: 0.03 % area
- Total impurities, alkali condition [3]: 0.04 % area

Compound: Cc1ccc(O)c([C@H](CCN(C(C)C)C(C)C)c2ccccc2)c1.Cc1ccc(O)c([C@H](CCN(C(C)C)C(C)C)c2ccccc2)c1.O=S(=O)(O)c1cccc2c(S(=O)(=O)O)cccc12 [tolterodine hemi naphthalene-1,5-disulfonate]
- Total impurities, oxidation condition [1]: 0.40 % area
- Total impurities, acid condition [2]: 0.07 % area
- Total impurities, alkali condition [3]: 0.11 % area

Compound: Cc1ccc(O)c([C@H](CCN(C(C)C)C(C)C)c2ccccc2)c1.Cc1ccc(O)c([C@H](CCN(C(C)C)C(C)C)c2ccccc2)c1.O=C(O)CCCCC(=O)O [tolterodine hemiadipate, Tolterodine Hemiadipate]
- Total impurities, oxidation condition [1]: 0.39 % area
- Total impurities, acid condition [2]: 0.14 % area
- Total impurities, alkali condition [3]: 0.10 % area

Compound: Cc1ccc(O)c([C@H](CCN(C(C)C)C(C)C)c2ccccc2)c1.O=C(O)CNC(=O)c1ccccc1 [tolterodine hippurate, Tolterodine Hippurate]
- Total impurities, oxidation condition [1]: 0.41 % area
- Total impurities, acid condition [2]: 0.11 % area
- Total impurities, alkali condition [3]: 0.14 % area

Compound: CC1=C(/C=C/C(C)=C/C=C/C(C)=C/C(=O)O)C(C)(C)CCC1.Cc1ccc(O)c([C@H](CCN(C(C)C)C(C)C)c2ccccc2)c1 [tolterodine retinoate, Tolterodine Retinoate]
- Total impurities, oxidation condition [1]: 0.08 % area
- Total impurities, acid condition [2]: 0.15 % area
- Total impurities, alkali condition [3]: 0.19 % area
- Cumulative amount of tolterodine penetrated through the skin ([4]; 0 hr): 0.0 µg
- Cumulative amount of tolterodine penetrated through the skin ([4]; 3 hr): 0.5 µg
- Cumulative amount of tolterodine penetrated through the skin ([4]; 6 hr): 1.7 µg
- Cumulative amount of tolterodine penetrated through the skin ([4]; 9 hr): 2.5 µg
- Cumulative amount of tolterodine penetrated through the skin ([4]; 12 hr): 4.1 µg

Compound: Cc1ccc(O)c([C@H](CCN(C(C)C)C(C)C)c2ccccc2)c1 [tolterodine tartrate, reference compound]
- Total impurities, oxidation condition [1]: 0.98 % area
- Total impurities, acid condition [2]: 0.20 % area
- Total impurities, alkali condition [3]: 0.29 % area

Compound: Tolterodine Benzene Sulfonate [tolterodine benzenesulfonate]
- Total impurities, oxidation condition [1]: 0.51 % area
- Total impurities, acid condition [2]: 0.02 % area
- Total impurities, alkali condition [3]: 0.08 % area
- Cumulative amount of tolterodine penetrated through the skin ([4]; 0 hr): 0.0 µg
- Cumulative amount of tolterodine penetrated through the skin ([4]; 3 hr): 0.0 µg
- Cumulative amount of tolterodine penetrated through the skin ([4]; 6 hr): 0.4 µg
- Cumulative amount of tolterodine penetrated through the skin ([4]; 9 hr): 0.8 µg
- Cumulative amount of tolterodine penetrated through the skin ([4]; 12 hr): 1.7 µg

Compound: Tolterodine Glucolate
- Total impurities, oxidation condition [1]: 0.44 % area
- Total impurities, acid condition [2]: 0.11 % area
- Total impurities, alkali condition [3]: 0.23 % area

Compound: Tolterodine Toluene Sulfonate [tolterodine p-toluenesulfonate]
- Total impurities, oxidation condition [1]: 0.09 % area
- Total impurities, acid condition [2]: 0.11 % area
- Total impurities, alkali condition [3]: 0.06 % area
- Cumulative amount of tolterodine penetrated through the skin ([4]; 0 hr): 0.0 µg
- Cumulative amount of tolterodine penetrated through the skin ([4]; 3 hr): 1.1 µg
- Cumulative amount of tolterodine penetrated through the skin ([4]; 6 hr): 8.0 µg
- Cumulative amount of tolterodine penetrated through the skin ([4]; 9 hr): 19.9 µg
- Cumulative amount of tolterodine penetrated through the skin ([4]; 12 hr): 36.6 µg
